Values of other authors as cited in patent US20240082270A1 (priority 2021, published 2024).

System: live SARS-CoV-2

C=C(C)[C@@H]1CCC(C)=C[C@H]1c1c(O)cc(CCCCC)c(C(=O)O)c1O [CBDA]
effectiveness against variants: equally effective

CCCCCc1cc(O)c(C/C=C(\C)CCC=C(C)C)c(O)c1C(=O)O [CBGA, cannabigerolic acid]
effectiveness against variants: equally effective
